Consider five molecules from patent US20260315446A1, “ANTIFUNGAL COMPOUNDS AND USES THEREOF” (priority 2023, published 2026).

Structures are written as SMILES. In brackets after ≈: the same amount, converted by molar mass. Where two headings read alike, the source gives them in different places. A value given as a limit tells only on which side of the number the result lay.

Test [1] concerns Cryptococcus neoformans. The experiment in a line: MIC assay (Example 3). The following applies: for antifungal activity at 37° C. versus 30° C.: C. neoformans; for MIC: Cryptococcus neoformans. The test is classed as cell-based. Here is the method:
(§1) In vitro antifungal activity was assessed for all fungal strains in RPMI 1640 (Sigma-Aldrich R1383). MICs were measured using Clinical and Laboratory Standards Institute (CLSI) M38-A2 and M27-A3 standard in vitro antifungal susceptibility protocols. C. neoformans and A. fumigatus testing was performed at 37° C. MECs for A. fumigatus were recorded after 48 h of growth. C. albicans testing was performed at 30° C. with a uniform concentration of 2 μg/mL of fluconazole to sensitize the cells to calcineurin inhibition.
(§2) C. neoformans clinical isolate H99 and congenic-derived strain KN99α were used (see, Nielsen K, et al., 2003. Infect Immun 71:4831-4841). KN99α-derived frr1Δ deletion mutants with nourseothricin resistance markers as part of the Madhani deletion collection (NIH funding R01AI100272) were used. C. deneoformans strains used include JEC21 and derived C21F2 (CNB1-1) and C21F3 (frr1-3) strains (see, Odom A, et al., 1997. EMBO J 16:2576-2589; Moore T D, Edman J C. 1993. Mol Cell Biol 13:1962-1970; Fox D S, et al., 2001. Mol Microbiol 39:835-849). C. albicans strain SC5314 is the wild-type strain from which mutants YAG171 (rbp1/rbp1) and YAG237 (CNB1-1/CNB1) were derived (see, Cruz M C, et al., 2001. Antimicrob Agents Chemother 45:3162-3170). A. fumigatus strain akuB^Ku80 and a derived FKBP12 mutant fkbp12A were used during antifungal screening (see, Falloon K, et al., 2015. PLoS One 10:e0137869).

The test system of test [2] is Candida albicans. The experiment in a line: MIC assay (Example 3). The test is classed as cell-based. The following applies: for MIC: Candida albicans, SC5314, read-out: MIC against Candida albicans (SC5314). Here is the method:
as §1, §2

For test [3], the system named is Aspergillus fumigatus. As to the kind of experiment: MEC assay (Example 3).
Test [4] has as its system IL-2 expression in primary mouse CD4+ T cells (mammalian calcineurin). As to the kind of experiment: In vitro immunosuppressive activity, IL-2 expression (Example 3). The test is classed as cell-based. The note with it: 72 h. Here is the method: Modifications at the C-22 position reduce inhibition of mammalian calcineurin signaling Mammalian calcineurin inhibition was then assessed and found to be reduced for these FK520 analogs. The inhibition of mammalian calcineurin was assessed by measuring the reduction of IL-2 expression from primary mouse CD4^+ T cells cultured in the presence of FK506, FK520, or an analog. Calcineurin activity is required for T cell activation and cytokine production, and IL-2 production serves as an effective measure of mammalian calcineurin activity. After culturing mouse CD4′ T cells for 72 h, IL-2 expression was analyzed by flow cytometry to evaluate the immunosuppressive activity of the analogs. […] However, compound concentrations that permit high IL-2 expression are less likely to result in cell death.
Spleen and lymph nodes from C57BL/6 mice were collected and homogenized through a 40-μm filter. Pan-CD4^+ T cells were enriched using the MagniSort Mouse CD4 T Cell Enrichment Kit (Invitrogen). Thereafter, CD4^+CD25^−CD62L^hiCD44^lo naïve CD4^+ T cells were FACS-sorted using a MoFlo Astrios cell sorter (Beckman Coulter). Naïve CD4^+ T cells were cultured in Iscove's Modified Dulbecco's Medium supplemented with 10% fetal bovine serum (FBS), penicillin (10 U/mL), streptomycin (10 μg/mL), glutamine (2 mM), gentamicin (50 μg/mL), and β-mercaptoethanol (55 μM). Cells were cultured for 72 h on anti-hamster IgG-coated plates with hamster anti-CD3s antibodies, hamster anti-CD28 antibodies, neutralizing anti-IL-4 antibodies, recombinant IL-12 (10 ng/mL), and recombinant IL-2 (50 U/mL). During this culture, cells were incubated with serially diluted drugs suspended in DMSO.

In test [5] the test system is Cryptococcus neoformans (H99). As to the kind of experiment: Broth microdilution MIC (Example 1). The test is classed as cell-based. The following applies: for MIC: Cryptococcus neoformans, read-out: MIC against Cryptococcus neoformans (H99). Here is the method: (§3) MICs/minimum effective concentrations (MECs) were determined for each of the novel analogs against the three major human fungal pathogens, A. fumigatus, C. neoformans, and C. albicans. […] Thus, analogs of FK506 and FK520 can tolerate up to 100-fold reduction in antifungal activity and still be considered for in vivo testing. For C. neoformans, MICs were the most uniform and ranged from 0.2 to 2 μg/mL, which is between 4- and 40-fold reduced for antifungal activity.
(§4) In vitro antifungal activities of FK506, FK520, and analogs were assessed in RPMI 1640 (Sigma-Aldrich) for all strains tested. MICs/minimum effective concentrations (MECs) for each drug were measured using modified Clinical and Laboratory Standards Institute (CLSI) M38-A2 and M27-A3 standard in vitro antifungal susceptibility protocols. Broth microdilution assays for MIC/MEC assessment were performed as described previously (see, Juvvadi P R, et al., 2019, Nat Commun 10:4275). All antifungal assays with C. neoformans were performed at 37° C. Antifungal susceptibility testing for C. albicans was performed in the presence of a uniform 1 μg/mL concentration of fluconazole to sensitize the organism to calcineurin inhibition.
Background: Broth dilution looks for growth in wells or tubes with falling amounts of substance.

Test [6] concerns Candida albicans (SC5314). As to the kind of experiment: Broth microdilution MIC (Example 1). In kind it is cell-based. The note with it: in the presence of 1 μg/mL fluconazole; for MIC: Candida albicans, SC5314, read-out: MIC against Candida albicans (SC5314). Here is the method:
as §3, §4

[7] abbreviates: MIC90, 37° C., read-out: MIC against Cryptococcus neoformans (H99).
Setting [8] is: MIC80, 30° C. with 2 μg/mL fluconazole.

The IC50 is the concentration that inhibits the measured activity by half. Take `CC[C@@H]1/C=C(\C)C[C@H](C)C[C@H](OC)[C@H]2O[C@@](O)(C(=O)C(=O)N3CCCC[C@H]3C(=O)O[C@H](/C(C)=C/C3CC[C@@H](O)[C@H](OC)C3)[C@H](C)[C@@H](O)C/C1=N/NC(=O)OC)[C@H](C)C[C@@H]2OC` (stereo partly drawn) [JH-FK-08]: in test [1], the “antifungal activity at 37° C. versus 30° C.” value was “potent antifungal activity against C. neoformans at 37 °C but not at 30 °C”. Also, the MIC in test [1] (setting [7]) is 0.8 µg/mL (≈ 0.926 µM); in test [1] (Table 8, read-out: H99 MIC90), 0.8 µg/mL (≈ 0.926 µM); in test [2] (setting [8]) it was 0.4 µg/mL (≈ 0.463 µM). The MIC/MEC in test [1] (strain frr1Δ (KN99α frr1Δ::NAT), MIC90, 37° C.) is above 25 µg/mL; in test [2] it was above 25 µg/mL; in test [3] (strain akuB^Ku80) it was 1.25 µg/mL (≈ 1.45 µM); in test [3] (strain Δfkbp12 (akuB^Ku80 fkbp12Δ)), above 20 µg/mL. For the same molecule, in test [3] (strain akuB^Ku80), the “MEC against Aspergillus fumigatus (akuB^Ku80)” value (“MEC … (akuB^Ku80)” below) worked out at 1.3 µg/mL. Also, the IC50 in test [4] came to 42.6 nM.
`C=CC[C@@H]1/C=C(\C)C[C@H](C)C[C@H](OC)[C@H]2O[C@@](O)(C(=O)C(=O)N3CCCC[C@H]3C(=O)O[C@H](/C(C)=C/[C@@H]3CC[C@@H](O)[C@H](OC)C3)[C@H](C)[C@@H](O)C/C1=N/NC(=O)CC)[C@H](C)C[C@@H]2OC` [JH-FK-02]: the MIC is 2 µg/mL (≈ 2.29 µM) in test [5] (37° C.) and 1.6 µg/mL in test [6].
Take `C=CCC1C=C(C)CC(C)CC(OC)C2OC(O)(C(=O)C(=O)N3CCCCC3C(=O)OC(C(C)=CC3CCC(O)C(OC)C3)C(C)C(O)CC1=O)C(C)CC2OC` (stereo not drawn) [FK506, reference compound]: the “antifungal activity at 37° C. versus 30° C.” value in test [1] is “potent antifungal activity against C. neoformans at 37 °C but not at 30 °C”. For the same molecule, the MIC in test [1] (setting [7]) was found to be 0.05 µg/mL (≈ 0.0622 µM); in test [1] (Table 8, read-out: H99 MIC90) it was 0.05 µg/mL (≈ 0.0622 µM); in test [2] (setting [8]) it was 0.02 µg/mL (≈ 0.0249 µM); in test [5] (37° C.), 0.05 µg/mL (≈ 0.0622 µM); in test [6], 0.02 µg/mL. Further, the “MEC … (akuB^Ku80)” value in test [3] (strain akuB^Ku80) worked out at 0.04 µg/mL. Moreover, the IC50 in test [4] worked out at 0.09 nM.
As for `CC[C@@H]1/C=C(\C)C[C@H](C)C[C@H](OC)[C@H]2O[C@@](O)(C(=O)C(=O)N3CCCC[C@H]3C(=O)O[C@H](/C(C)=C/[C@@H]3CC[C@@H](O)[C@H](OC)C3)[C@H](C)[C@@H](O)C/C1=N/NC(C)=O)[C@H](C)C[C@@H]2OC` [JH-FK-05], in test [5] (C. neoformans), the “fold reduction of antifungal activity compared to FK506” value was determined as 20 fold. For the same molecule, the “broad-spectrum antifungal activity / MIC ranking” value in test [5] (C. neoformans, C. albicans, A. fumigatus) is “maintained high levels of broad-spectrum antifungal activity across the three species”. Further, the MIC in test [5] (37° C.) turned out to be 1 µg/mL (≈ 1.18 µM); in test [6] it was 0.8 µg/mL.
For the molecule `CC[C@@H]1/C=C(\C)C[C@H](C)C[C@H](OC)[C@H]2O[C@@](O)(C(=O)C(=O)N3CCCC[C@H]3C(=O)O[C@H](/C(C)=C/[C@@H]3CC[C@@H](O)[C@H](OC)C3)[C@H](C)[C@@H](O)CC1=O)[C@H](C)C[C@@H]2OC` [FK520, reference compound], the “antifungal activity at 37° C. versus 30° C.” value in test [1] was “potent antifungal activity against C. neoformans at 37 °C but not at 30 °C”. Further, the “MIC against Cryptococcus neoformans (H99)” value in test [1] (MIC90, 37° C.) came to 0.05 µg/mL (≈ 0.0631 µM); in test [5] (37° C.), 0.05 µg/mL (≈ 0.0631 µM). In addition, the “H99 MIC90” value in test [1] (Table 8) was found to be 0.05 µg/mL. Further, the “MIC against Candida albicans (SC5314)” value stood at 0.02 µg/mL (≈ 0.0253 µM) in test [2] (setting [8]) and 0.02 µg/mL in test [6]. Besides, the “MEC … (akuB^Ku80)” value in test [3] stood at 0.16 µg/mL. For the same molecule, the “antifungal activity (MIC/MEC range)” value in test [5] (range over C. neoformans, C. albicans and A. fumigatus) was in the range of 0.016 to 0.05 µg/mL. The IC50 in test [4] is 0.3 nM.
